For series [1], the target named is T1, Leukotriene C4 synthase (Homo sapiens) (UniProt Q16873).
T1 sequence (whole entry): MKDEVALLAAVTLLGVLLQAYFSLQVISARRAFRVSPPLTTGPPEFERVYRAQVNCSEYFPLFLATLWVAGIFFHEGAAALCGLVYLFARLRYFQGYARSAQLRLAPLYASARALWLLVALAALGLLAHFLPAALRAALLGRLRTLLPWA
The series can be described thus: Inhibition of LTC4S in healthy human whole blood assessed as inhibition of calcium ionophore A23187 stimulated cysteinyl leukotrienes production preincuabted for 30 mins followed by calcium ionophore stimulation and measured after 10 mins by LC-MS analysis. It counts as tissue-based.

Series [2] is described as follows: Fraction unbound in cynomolgus monkey plasma by equilibrium dialysis based LC-MS analysis. It counts as ADME, cell-free, Macaca fascicularis. Background: In equilibrium dialysis only unbound substance equilibrates across the membrane.
The target of series [3] is T1, Leukotriene C4 synthase (Homo sapiens).
Series [4] can be described thus: Oral bioavailability in cynomolgus monkey at 2 mg/kg after 48 hrs. In kind it is ADME, organism-based, Macaca fascicularis. To be noted: in vivo.
A short description of series [5]: Octanol/Sodium phosphate buffer partition coefficient, log D of compound at pH 7.4 at 1 mg incubated for overnight under shaking condition by LC-MS/MS analysis. It counts as physicochemical.
Series [6] can be described thus: Clearance in Beagle dog at 1 mg/kg, iv infusion or 2 mg/kg, po via gavage after 48 hrs. In kind it is ADME, organism-based, Canis lupus familiaris. The conditions noted are these: in vivo.
The target in series [7] is T2, Solute carrier organic anion transporter family member 1B1 (Homo sapiens, UniProt Q9Y6L6).
T2 sequence (Q9Y6L6 whole entry): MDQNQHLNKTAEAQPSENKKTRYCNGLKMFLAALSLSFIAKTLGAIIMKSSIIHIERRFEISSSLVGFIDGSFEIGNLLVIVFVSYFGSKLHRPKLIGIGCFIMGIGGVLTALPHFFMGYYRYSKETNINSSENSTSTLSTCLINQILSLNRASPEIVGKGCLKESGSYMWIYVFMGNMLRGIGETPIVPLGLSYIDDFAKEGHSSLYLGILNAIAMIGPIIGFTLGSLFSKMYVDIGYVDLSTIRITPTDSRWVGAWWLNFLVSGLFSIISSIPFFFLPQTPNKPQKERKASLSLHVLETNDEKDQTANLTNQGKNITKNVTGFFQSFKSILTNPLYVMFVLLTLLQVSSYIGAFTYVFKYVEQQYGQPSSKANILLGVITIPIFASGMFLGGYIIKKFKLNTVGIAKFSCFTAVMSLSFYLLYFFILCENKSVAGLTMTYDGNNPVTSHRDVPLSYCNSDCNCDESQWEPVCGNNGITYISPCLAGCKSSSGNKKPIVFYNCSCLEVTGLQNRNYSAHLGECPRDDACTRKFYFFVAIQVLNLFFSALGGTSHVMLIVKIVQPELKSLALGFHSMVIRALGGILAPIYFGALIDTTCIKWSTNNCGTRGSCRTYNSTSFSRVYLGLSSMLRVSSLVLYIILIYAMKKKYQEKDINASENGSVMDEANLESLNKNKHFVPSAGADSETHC
The experiment in a line: Inhibition of OATP1B1 (unknown origin) expressed in HEK293 cells measured after 0.5 to 20 mins by scintillation counting analysis. It counts as ADME, cell-based.

Series [8] has as its target T3, Potassium voltage-gated channel subfamily KQT member 1 (Homo sapiens, UniProt P51787).
T3 sequence (P51787 whole entry): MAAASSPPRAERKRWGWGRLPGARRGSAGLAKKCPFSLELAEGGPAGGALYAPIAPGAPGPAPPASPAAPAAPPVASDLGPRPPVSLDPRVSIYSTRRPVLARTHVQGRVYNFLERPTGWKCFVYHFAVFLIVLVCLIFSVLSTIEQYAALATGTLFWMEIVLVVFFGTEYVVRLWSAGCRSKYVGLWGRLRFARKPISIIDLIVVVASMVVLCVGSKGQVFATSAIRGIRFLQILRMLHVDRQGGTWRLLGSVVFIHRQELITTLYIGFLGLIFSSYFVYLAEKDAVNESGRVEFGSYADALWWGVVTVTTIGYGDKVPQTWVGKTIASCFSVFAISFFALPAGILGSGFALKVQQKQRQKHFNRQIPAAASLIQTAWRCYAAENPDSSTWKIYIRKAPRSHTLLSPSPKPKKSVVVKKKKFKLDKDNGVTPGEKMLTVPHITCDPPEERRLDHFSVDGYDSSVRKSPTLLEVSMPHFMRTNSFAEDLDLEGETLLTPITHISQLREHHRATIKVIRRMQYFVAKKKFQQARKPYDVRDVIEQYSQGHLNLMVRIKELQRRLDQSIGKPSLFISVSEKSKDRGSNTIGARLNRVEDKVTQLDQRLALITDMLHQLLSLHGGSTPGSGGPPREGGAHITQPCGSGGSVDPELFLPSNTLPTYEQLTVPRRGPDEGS
The series can be described thus: Inhibition of human KvLQT1 expressed in CHOK1 cells at < 33 uM at -80 mV holding potential by Ionwork-based analysis. In kind it is cell-based.

The test system of series [9] is Blood. The experiment in a line: Effect on arachidonic acid pathway in calcium ionophore A23187-stimulated asthmatic human whole blood assessed as increase in lipoxin level preincubated for 30 mins followed by calcium ionophore A23187 stimulation and measured after 60 mins by LC-MS analysis. In kind it is functional, tissue-based.
Series [10] can be described thus: Clearance in cynomolgus monkey at 1 mg/kg, iv or 2 mg/kg, po after 48 hrs. It counts as ADME, organism-based, Macaca fascicularis. The conditions noted are these: in vivo.
A further series addresses Cytochrome P450 3A4 (Homo sapiens, UniProt P08684). The series can be described thus: Inhibition of recombinant human CYP3A4 expressed in Escherichia coli using coumarin based substrate by fluorescence assay. It counts as ADME.
Series [11] in a line: Effective half life in Beagle dog at 1 mg/kg, iv infusion or 2 mg/kg, po via gavage after 48 hrs. In kind it is ADME, organism-based, Canis lupus familiaris. The conditions noted are these: in vivo, read-out: t1/2eff (converted).
Series [12] can be described thus: Oral bioavailability in Han Wistar rat at 1 mg/kg after 24 hrs. To be noted: in vivo. It counts as ADME, organism-based.
The nature of series [13]: Fraction unbound in human plasma by equilibrium dialysis based LC-MS analysis. It counts as ADME, cell-free.
Series [14] is described as follows: Cmax in po dosed rat at NOAEL measured after 7 days. The conditions noted are these: in vivo. In kind it is ADME, organism-based. More on the design: route oral.
Series [15] in a line: Volume of distribution at steady state in Beagle dog at 1 mg/kg, iv infusion or 2 mg/kg, po via gavage after 48 hrs. In kind it is ADME, organism-based, Canis lupus familiaris. To be noted: in vivo, read-out: Vdss.
Series [16] has as its target T1, Leukotriene C4 synthase (Homo sapiens). The experiment in a line: Inhibition of LTC4S in asthmatic human whole blood assessed as inhibition of calcium ionophore A23187 stimulated cysteinyl leukotrienes production preincuabted for 30 mins followed by calcium ionophore stimulation and measured after 10 mins by LC-MS analysis. It counts as tissue-based.
For series [17], the system named is Blood. The series can be described thus: Preservation of LXA4 level in calcium ionophore A23187-stimulated healthy human whole blood preincubated for 30 mins followed by calcium ionophore A23187 stimulation and measured after 60 mins by LC-MS analysis. In kind it is functional, tissue-based.
A short description of series [18]: Displacement of [3H]-GABA/[3]-muscimol from GABA gated chloride channel in Sprague-Dawley rat cortical synoptic membranes by liquid scintillation analysis. In general terms: Loss of bound radioactivity is the signal in a displacement assay; it reports binding, not function.
Series [19] is described as follows: Effective half life in Han Wistar rat at 0.5 mg/kg, iv or 1 mg/kg, po after 24 hrs. It counts as ADME, organism-based. To be noted: in vivo, read-out: t1/2eff (converted).

Activity calls are given as the source filed them. The calls are words filed in the database; no cut-off is given here.

Cytochrome P450 3A4, sequence (P08684 whole entry, the tested form may be a part): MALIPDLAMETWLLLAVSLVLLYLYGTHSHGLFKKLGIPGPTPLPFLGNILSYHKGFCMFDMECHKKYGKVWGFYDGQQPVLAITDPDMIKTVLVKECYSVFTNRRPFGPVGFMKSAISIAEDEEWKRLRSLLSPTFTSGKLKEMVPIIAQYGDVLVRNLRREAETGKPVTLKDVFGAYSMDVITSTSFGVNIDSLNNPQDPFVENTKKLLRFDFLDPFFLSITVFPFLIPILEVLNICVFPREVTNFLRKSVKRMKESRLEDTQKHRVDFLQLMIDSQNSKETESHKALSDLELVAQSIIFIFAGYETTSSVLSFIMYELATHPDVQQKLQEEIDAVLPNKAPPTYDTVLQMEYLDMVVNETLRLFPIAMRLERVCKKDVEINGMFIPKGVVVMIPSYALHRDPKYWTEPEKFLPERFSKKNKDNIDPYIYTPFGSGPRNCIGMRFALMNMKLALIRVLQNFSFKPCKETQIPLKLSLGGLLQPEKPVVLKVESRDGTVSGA

In the case of `COc1nc(N(CC(C)(C)F)c2cc(Cl)c(F)cc2F)cnc1C(=O)[C@H]1C[C@@H]1C(=O)O` [AZD-9898], the inhibition entry in series [1] and in series [16] was “Active” in each case. In addition, the unbound share (fraction unbound) in series [2] is 0.03; in series [13], 0.036. Further, the fIC50 in series [3] was found to be 6.2 nM. Moreover, the bioavailability came out at 90% in [4] and 100% in series [12]. Further, the logD in series [5] turned out to be 1.1. Moreover, the values for the clearance in series [6] and in [10] were 1.8 mL/min/kg and 0.6 mL/min/kg, respectively. Moreover, in [7], the INH was determined as 3.2 µM. Further, the “inhibition (INH)” value in series [8] is “Not Active”. For the same compound, the Activity entry with Blood [9] and with Blood [17] was “Dose-dependent effect” throughout. The half-maximal inhibitory concentration (IC50) is over 30 µM at Cytochrome P450 3A4 and over 100 µM in series [18]. Further, the half-life in series [11] is 6.1 h; in series [19], 26 h. The compound also had a Cmax at […] in series [14] of 349 µM. Moreover, the Vd in series [15] came to 1 L/kg.

Usually fraction unbound stands for the share of the substance not bound to proteins or other matrix. For orientation: bioavailability means the share of a dose that reaches the circulation, judged against a reference dose that is usually intravenous. The term logD denotes the decadic logarithm of the distribution of all forms, ionised or not, between an organic phase and buffer at a given pH. As a reminder, the IC50 is the concentration needed to halve the response being measured. A word on the Cmax: it is the highest concentration seen after dosing.

The values are drawn from ChEMBL document CHEMBL4376816, “Discovery of the Oral Leukotriene C4 Synthase Inhibitor (1S,2S)-2-({5-[(5-Chloro-2,4-difluorophenyl)(2-fluoro-2-methylpropyl)amino]-3-methoxypyrazin-2-yl}carbonyl)cyclopropanecarboxylic Acid (AZD9898) as a New Treatment for Asthma” (J Med Chem, 2019).
